Tested on: A549 cells
Assay: [3H]-2DG uptake assay in A549 cells
Format: cell-based, human
Details: 10 min incubation with compound, mean ± s.d., n = 3
Experimental: To determine which of the 17 rapafucin hits inhibited the transporter activity of GLUT1, an orthogonal glucose uptake assay using 2-deoxy-D-[3H] glucose ([3H]-2DG), a nonhydrolyzable, radioactive glucose analog, was employed. Each hit was separately incubated with A549 cells for 10 min before the amount of [3H]-2DG taken up by the cells was measured using scintillation counting. […] The effect of JW11-D2 on uptake of [3H]-2DG in human red blood cells that exclusively express GLUT1 was then determined. Helgerson and Carruthers, J. Biol. Chem. 1987, 262, 5464-5475. […] To further improve the potency of JW11-D2, a structure-activity relationship (SAR) study was performed by synthesizing 21 new analogs of JW11-D2 using different amino acid building blocks.
The inhibitory activity of compounds on glucose transport was analyzed by measuring the cell uptake of [3H]-2DG as previously described. Ulanovskaya et al., Chem. Biol. 2011, 18, 222-230. Briefly, cells were washed twice and incubated in low-glucose medium for 10 min. Cells were added drugs and incubated for another 10 min before adding [3H]-2DG. After 10 min incubation with [3H]-2DG, cells were washed twice and lysed with 0.2 N NaOH plus 0.2% SDS. The cell lysate was transferred to a new tube containing 1 mL of optiphase supermix. Glucose uptake was quantified with a scintillation counter.

SMILES	IC50
CCC(C)C1C(=O)N(C)CC(=O)N(C)CCC=CC(=O)OCC(C)(C)C(=O)C(=O)N2CCCCC2C(=O)OC(CCc2ccc(OC)c(OC)c2)c2cccc(c2)NC(=O)CCC(=O)N(C)C(CC(C)C)C(=O)NC(Cc2ccccc2)C(=O)N1C (centres unmarked) [JW11-D2-1]	> 3000 nM
CCC(C)C1C(=O)N2CCCC2C(=O)N(C)CCC=CC(=O)OCC(C)(C)C(=O)C(=O)N2CCCCC2C(=O)OC(CCc2ccc(OC)c(OC)c2)c2cccc(c2)NC(=O)CCC(=O)N(C)C(CC(C)C)C(=O)NC(Cc2ccccc2)C(=O)N1C (centres unmarked) [JW11-D2-2]	> 3000 nM
CCC(C)C1C(=O)N2CCCC2C(=O)N(C)CCC=CC(=O)OCC(C)(C)C(=O)C(=O)N2CCCCC2C(=O)OC(CCc2ccc(OC)c(OC)c2)c2cccc(c2)NC(=O)CCC(=O)N(C)C(CC(C)C)C(=O)NC(Cc2ccccc2)C(=O)N1C (centres unmarked) [JW11-D2-3]	> 3000 nM
COc1ccc(CCC2OC(=O)C3CCCCN3C(=O)C(=O)C(C)(C)COC(=O)C=CCCN(C)C(=O)CNC(=O)C(C(C)C)N(C)C(=O)C(Cc3ccccc3)NC(=O)C(CC(C)C)N(C)C(=O)CCC(=O)Nc3cccc2c3)cc1OC (centres unmarked) [JW11-D2-4]	30.2 ± 2.3 nM
CCCCC1C(=O)NCC(=O)N(C)CCC=CC(=O)OCC(C)(C)C(=O)C(=O)N2CCCCC2C(=O)OC(CCc2ccc(OC)c(OC)c2)c2cccc(c2)NC(=O)CCC(=O)N(C)C(CC(C)C)C(=O)NC(Cc2ccccc2)C(=O)N1C (centres unmarked) [JW11-D2-7]	> 3000 nM
CCCC1C(=O)NCC(=O)N(C)CCC=CC(=O)OCC(C)(C)C(=O)C(=O)N2CCCCC2C(=O)OC(CCc2ccc(OC)c(OC)c2)c2cccc(c2)NC(=O)CCC(=O)N(C)C(CC(C)C)C(=O)NC(Cc2ccccc2)C(=O)N1C (centres unmarked) [JW11-D2-8]	> 3000 nM
COc1ccc(CCC2OC(=O)C3CCCCN3C(=O)C(=O)C(C)(C)COC(=O)C=CCCN(C)C(=O)CNC(=O)C(CC(C)C)N(C)C(=O)C(Cc3ccccc3)NC(=O)C(CC(C)C)N(C)C(=O)CCC(=O)Nc3cccc2c3)cc1OC (centres unmarked) [JW11-D2-9]	> 3000 nM
CCC(C)C1C(=O)NCC(=O)N(C)CCC=CC(=O)OCC(C)(C)C(=O)C(=O)N2CCCCC2C(=O)OC(CCc2ccc(OC)c(OC)c2)c2cccc(c2)NC(=O)CCC(=O)N(C)C(CC(C)C)C(=O)NC(CCc2ccccc2)C(=O)N1C (centres unmarked) [JW11-D2-10]	> 3000 nM
CCC(C)C1C(=O)NCC(=O)N(C)CCC=CC(=O)OCC(C)(C)C(=O)C(=O)N2CCCCC2C(=O)OC(CCc2ccc(OC)c(OC)c2)c2cccc(c2)NC(=O)CCC(=O)N(C)C(CC(C)C)C(=O)NC(Cc2ccc(O)cc2)C(=O)N1C (centres unmarked) [JW11-D2-13]	> 3000 nM
CCC(C)C1C(=O)NCC(=O)N(C)CCC=CC(=O)OCC(C)(C)C(=O)C(=O)N2CCCCC2C(=O)OC(CCc2ccc(OC)c(OC)c2)c2cccc(c2)NC(=O)CCC(=O)N(C)C(CC(C)C)C(=O)N(C)C(Cc2ccccc2)C(=O)N1C (centres unmarked) [JW11-D2-14]	38.5 ± 4.7 nM

Second part, the compound after the results:

IC50	SMILES
> 3000 nM	CCC(C)C1C(=O)NCC(=O)N(C)CCC=CC(=O)OCC(C)(C)C(=O)C(=O)N2CCCCC2C(=O)OC(CCc2ccc(OC)c(OC)c2)c2cccc(c2)NC(=O)CCC(=O)N(C)C(CC(C)C)C(=O)NC(CC(C)C)C(=O)N1C (centres unmarked) [JW11-D2-15]
> 3000 nM	CCC(C)C1C(=O)NCC(=O)N(C)CCC=CC(=O)OCC(C)(C)C(=O)C(=O)N2CCCCC2C(=O)OC(CCc2ccc(OC)c(OC)c2)c2cccc(c2)NC(=O)CCC(=O)NC(CC(C)C)C(=O)NC(Cc2ccccc2)C(=O)N1C (centres unmarked) [JW11-D2-16]
> 3000 nM	CCC(C)C1C(=O)NC(Cc2ccccc2)C(=O)N(C)C(C(C)CC)C(=O)NCC(=O)N(C)CCC=CC(=O)OCC(C)(C)C(=O)C(=O)N2CCCCC2C(=O)OC(CCc2ccc(OC)c(OC)c2)c2cccc(c2)NC(=O)CCC(=O)N1C (centres unmarked) [JW11-D2-17]
> 3000 nM	CCCC1C(=O)NC(Cc2ccccc2)C(=O)N(C)C(C(C)CC)C(=O)NCC(=O)N(C)CCC=CC(=O)OCC(C)(C)C(=O)C(=O)N2CCCCC2C(=O)OC(CCc2ccc(OC)c(OC)c2)c2cccc(c2)NC(=O)CCC(=O)N1C (centres unmarked) [JW11-D2-18]
> 3000 nM	CCCCC1C(=O)NC(Cc2ccccc2)C(=O)N(C)C(C(C)CC)C(=O)NCC(=O)N(C)CCC=CC(=O)OCC(C)(C)C(=O)C(=O)N2CCCCC2C(=O)OC(CCc2ccc(OC)c(OC)c2)c2cccc(c2)NC(=O)CCC(=O)N1C (centres unmarked) [JW11-D2-19]
62.3 ± 5.1 nM	CCC(C)C1C(=O)NCC(=O)N(C)CCC=CC(=O)OCC(C)(C)C(=O)C(=O)N2CCCCC2C(=O)OC(CCc2ccc(OC)c(OC)c2)c2cccc(c2)NC(=O)CCC(=O)N(C)C(C(C)C)C(=O)NC(Cc2ccccc2)C(=O)N1C (centres unmarked) [JW11-D2-20]
> 3000 nM	CCC(C)C1C(=O)NCC(=O)N(C)CCC=CC(=O)OCC(C)(C)C(=O)C(=O)N2CCCCC2C(=O)OC(CCc2ccc(OC)c(OC)c2)c2cccc(c2)NC(=O)CCC(=O)N(C)C(Cc2ccccc2)C(=O)NC(Cc2ccccc2)C(=O)N1C (centres unmarked) [JW11-D2-21]
